Experimental data reported in ChEMBL document CHEMBL4602719, “Discovery of Potent, Selective, and Orally Bioavailable Inhibitors of USP7 with In Vivo Antitumor Activity” (J Med Chem, 2020).

Tests used:
[1] = Cytotoxicity against human RKO cells assessed as reduction in cellular ATP level measured after 5 days by CellTiter-Glo assay; format: cell-based
[2] = Clearance in Sprague-Dawley rat at 0.5 mg/kg, iv; format: ADME, organism-based; conditions: in vivo
[3] = molecular target: T1, Ubiquitin carboxyl-terminal hydrolase isozyme L3 (Homo sapiens, UniProt P15374); test: Inhibition of human GST-tagged UCHL3 expressed in Escherichia coli assessed as cleavage of Ubiquitin-Rhodamine110-glycine to Ubiquitin and Rhodamine110-glycine using Ubiquitin-Rhodamine110-glycine as substrate by fluorescence based analysis
T1 sequence (P15374 whole entry): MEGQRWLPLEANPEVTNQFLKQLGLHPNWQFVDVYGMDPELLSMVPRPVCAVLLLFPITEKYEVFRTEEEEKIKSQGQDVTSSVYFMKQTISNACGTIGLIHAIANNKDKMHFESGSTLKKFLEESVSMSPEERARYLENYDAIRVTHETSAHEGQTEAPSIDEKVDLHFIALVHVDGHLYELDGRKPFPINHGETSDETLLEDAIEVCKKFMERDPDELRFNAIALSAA

[4] = molecular target: Ubiquitin carboxyl-terminal hydrolase 2 (Homo sapiens, UniProt O75604); test: Inhibition of human GST-tagged USP2 isoform 4 expressed in Escherichia coli assessed as cleavage of Ubiquitin-Rhodamine110-glycine to Ubiquitin and Rhodamine110-glycine using Ubiquitin-Rhodamine110-glycine as substrate by fluorescence based analysis
Ubiquitin carboxyl-terminal hydrolase 2, sequence (O75604 whole entry, the tested form may be a part, canonical isoform): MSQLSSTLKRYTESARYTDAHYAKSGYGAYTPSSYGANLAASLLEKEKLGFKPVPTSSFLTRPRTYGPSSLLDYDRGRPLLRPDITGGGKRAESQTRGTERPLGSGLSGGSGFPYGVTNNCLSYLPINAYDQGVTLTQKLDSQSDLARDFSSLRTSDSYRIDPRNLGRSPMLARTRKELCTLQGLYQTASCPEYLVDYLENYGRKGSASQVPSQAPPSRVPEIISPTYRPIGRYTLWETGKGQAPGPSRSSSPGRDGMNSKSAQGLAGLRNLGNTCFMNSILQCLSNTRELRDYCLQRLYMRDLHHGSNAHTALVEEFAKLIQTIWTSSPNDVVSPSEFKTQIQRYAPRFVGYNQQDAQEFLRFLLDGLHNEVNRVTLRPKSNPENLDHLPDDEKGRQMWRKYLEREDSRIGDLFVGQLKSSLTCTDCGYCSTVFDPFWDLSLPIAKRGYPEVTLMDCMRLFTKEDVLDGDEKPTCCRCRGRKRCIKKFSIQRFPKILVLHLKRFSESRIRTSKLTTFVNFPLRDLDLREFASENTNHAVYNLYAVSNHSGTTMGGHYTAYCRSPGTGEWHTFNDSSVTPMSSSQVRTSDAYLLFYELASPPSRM

[5] = molecular target: Ubiquitin carboxyl-terminal hydrolase 9X (Homo sapiens, UniProt Q93008); test: Inhibition of human GST-tagged USP9X CD (1554 to 1995 residues) expressed in Escherichia coli assessed as cleavage of Ubiquitin-Rhodamine110-glycine to Ubiquitin and Rhodamine110-glycine using Ubiquitin-Rhodamine110-glycine as substrate by fluorescence based analysis
[6] = molecular target: Ubiquitin carboxyl-terminal hydrolase 11 (Homo sapiens, UniProt P51784); test: Inhibition of USP11 (unknown origin)
Ubiquitin carboxyl-terminal hydrolase 11, sequence (P51784 whole entry): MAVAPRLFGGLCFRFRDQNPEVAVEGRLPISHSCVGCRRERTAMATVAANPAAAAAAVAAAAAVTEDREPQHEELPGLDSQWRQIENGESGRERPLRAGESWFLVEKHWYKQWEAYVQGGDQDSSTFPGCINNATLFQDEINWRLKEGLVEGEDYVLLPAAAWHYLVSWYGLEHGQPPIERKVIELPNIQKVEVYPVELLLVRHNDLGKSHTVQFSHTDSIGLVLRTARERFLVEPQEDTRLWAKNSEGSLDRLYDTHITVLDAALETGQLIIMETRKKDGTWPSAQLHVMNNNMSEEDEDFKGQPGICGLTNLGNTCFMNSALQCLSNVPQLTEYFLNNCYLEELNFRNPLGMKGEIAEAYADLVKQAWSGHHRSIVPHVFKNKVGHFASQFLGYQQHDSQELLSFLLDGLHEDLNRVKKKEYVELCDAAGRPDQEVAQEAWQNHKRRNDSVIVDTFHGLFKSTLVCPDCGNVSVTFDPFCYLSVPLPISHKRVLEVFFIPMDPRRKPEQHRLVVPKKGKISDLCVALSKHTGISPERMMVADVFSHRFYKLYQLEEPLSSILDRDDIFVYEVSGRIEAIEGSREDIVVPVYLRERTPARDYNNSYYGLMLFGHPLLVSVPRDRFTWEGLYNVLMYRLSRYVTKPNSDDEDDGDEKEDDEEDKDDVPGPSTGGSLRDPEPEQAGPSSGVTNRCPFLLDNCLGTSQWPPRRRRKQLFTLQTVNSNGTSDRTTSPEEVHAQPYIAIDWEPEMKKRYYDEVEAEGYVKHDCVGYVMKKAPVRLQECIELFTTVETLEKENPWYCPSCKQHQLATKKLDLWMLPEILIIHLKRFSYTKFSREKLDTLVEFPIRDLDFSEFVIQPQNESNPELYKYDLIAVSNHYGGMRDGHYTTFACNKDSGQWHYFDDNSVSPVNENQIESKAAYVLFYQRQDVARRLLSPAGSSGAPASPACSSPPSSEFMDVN

[7] = molecular target: Ubiquitin carboxyl-terminal hydrolase CYLD (Homo sapiens, UniProt Q9NQC7); test: Inhibition of human 6His-tagged CYLD expressed in baculovirus infected Sf21 insect cells assessed as cleavage of Ubiquitin-Rhodamine110-glycine to Ubiquitin and Rhodamine110-glycine using Ubiquitin-Rhodamine110-glycine as substrate by fluorescence based analysis
[8] = molecular target: Ubiquitin carboxyl-terminal hydrolase isozyme L1 (Homo sapiens, UniProt P09936); test: Inhibition of human 6His-tagged UCHL1 expressed in Escherichia coli assessed as cleavage of Ubiquitin-Rhodamine110-glycine to Ubiquitin and Rhodamine110-glycine using Ubiquitin-Rhodamine110-glycine as substrate by fluorescence based analysis
Ubiquitin carboxyl-terminal hydrolase isozyme L1, sequence (P09936 whole entry): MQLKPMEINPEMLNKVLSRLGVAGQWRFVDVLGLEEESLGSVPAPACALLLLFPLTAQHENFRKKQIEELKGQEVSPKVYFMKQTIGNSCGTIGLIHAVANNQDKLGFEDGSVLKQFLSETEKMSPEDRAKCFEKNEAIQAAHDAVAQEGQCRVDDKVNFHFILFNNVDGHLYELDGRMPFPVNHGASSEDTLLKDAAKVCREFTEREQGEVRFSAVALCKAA

[9] = molecular target: Ubiquitin carboxyl-terminal hydrolase isozyme L5 (Homo sapiens, UniProt Q9Y5K5); test: Inhibition of human GST-tagged UCHL5 expressed in Escherichia coli assessed as cleavage of Ubiquitin-Rhodamine110-glycine to Ubiquitin and Rhodamine110-glycine using Ubiquitin-Rhodamine110-glycine as substrate by fluorescence based analysis
[10] = molecular target: Ubiquitin carboxyl-terminal hydrolase BAP1 (Homo sapiens, UniProt Q92560); test: Inhibition of human GST-tagged BAP1 expressed in Escherichia coli assessed as cleavage of Ubiquitin-Rhodamine110-glycine to Ubiquitin and Rhodamine110-glycine using Ubiquitin-Rhodamine110-glycine as substrate by fluorescence based analysis
Ubiquitin carboxyl-terminal hydrolase BAP1, sequence (Q92560 whole entry): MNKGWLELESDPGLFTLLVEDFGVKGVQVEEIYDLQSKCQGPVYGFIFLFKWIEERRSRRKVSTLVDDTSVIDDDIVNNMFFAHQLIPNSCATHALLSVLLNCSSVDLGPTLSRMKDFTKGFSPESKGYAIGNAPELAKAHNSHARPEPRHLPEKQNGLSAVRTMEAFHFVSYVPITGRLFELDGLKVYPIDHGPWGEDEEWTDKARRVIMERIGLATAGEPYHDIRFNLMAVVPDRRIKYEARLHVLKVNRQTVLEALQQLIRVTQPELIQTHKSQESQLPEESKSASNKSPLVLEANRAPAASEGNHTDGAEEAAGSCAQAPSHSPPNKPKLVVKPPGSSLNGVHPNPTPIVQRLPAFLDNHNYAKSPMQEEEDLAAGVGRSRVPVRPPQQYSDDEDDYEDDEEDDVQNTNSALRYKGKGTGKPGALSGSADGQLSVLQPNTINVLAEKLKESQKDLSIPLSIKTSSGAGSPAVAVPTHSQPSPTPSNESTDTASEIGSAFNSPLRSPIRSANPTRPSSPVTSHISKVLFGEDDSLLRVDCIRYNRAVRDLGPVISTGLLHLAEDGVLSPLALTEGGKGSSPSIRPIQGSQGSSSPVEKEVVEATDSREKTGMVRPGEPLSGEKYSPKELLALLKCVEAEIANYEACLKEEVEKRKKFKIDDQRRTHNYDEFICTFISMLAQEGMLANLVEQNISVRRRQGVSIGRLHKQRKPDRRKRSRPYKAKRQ

[11] = molecular target: Ubiquitin thioesterase OTU1 (Homo sapiens, UniProt Q5VVQ6); test: Inhibition of human GST-tagged OTU1 expressed in Escherichia coli assessed as cleavage of Ubiquitin-Rhodamine110-glycine to Ubiquitin and Rhodamine110-glycine using Ubiquitin-Rhodamine110-glycine as substrate by fluorescence based analysis
Ubiquitin thioesterase OTU1, sequence (Q5VVQ6 whole entry): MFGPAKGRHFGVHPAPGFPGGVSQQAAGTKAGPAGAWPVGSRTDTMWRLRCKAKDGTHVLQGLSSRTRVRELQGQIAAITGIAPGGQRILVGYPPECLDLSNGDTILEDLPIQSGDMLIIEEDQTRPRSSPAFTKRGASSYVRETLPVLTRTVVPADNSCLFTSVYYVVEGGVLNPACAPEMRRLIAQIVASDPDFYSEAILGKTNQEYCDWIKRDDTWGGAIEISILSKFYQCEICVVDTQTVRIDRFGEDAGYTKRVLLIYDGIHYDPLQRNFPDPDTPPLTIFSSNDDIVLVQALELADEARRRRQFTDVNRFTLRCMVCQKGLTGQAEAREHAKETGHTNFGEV

[12] = molecular target: Ubiquitin thioesterase OTUB2 (Homo sapiens, UniProt Q96DC9); test: Inhibition of human GST-tagged OTUB2 expressed in Escherichia coli assessed as cleavage of Ubiquitin-Rhodamine110-glycine to Ubiquitin and Rhodamine110-glycine using Ubiquitin-Rhodamine110-glycine as substrate by fluorescence based analysis
Ubiquitin thioesterase OTUB2, sequence (Q96DC9 whole entry, the tested form may be a part): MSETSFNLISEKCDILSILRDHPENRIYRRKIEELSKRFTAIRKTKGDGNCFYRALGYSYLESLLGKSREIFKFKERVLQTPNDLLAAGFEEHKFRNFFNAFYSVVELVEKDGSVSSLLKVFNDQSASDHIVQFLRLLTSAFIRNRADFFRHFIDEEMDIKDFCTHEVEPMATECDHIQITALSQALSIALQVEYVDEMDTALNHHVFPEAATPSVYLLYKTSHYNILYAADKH

[13] = molecular target: OTU domain-containing protein 3 (Homo sapiens, UniProt Q5T2D3); test: Inhibition of human GST-tagged OTUD3 expressed in Escherichia coli assessed as cleavage of Ubiquitin-Rhodamine110-glycine to Ubiquitin and Rhodamine110-glycine using Ubiquitin-Rhodamine110-glycine as substrate by fluorescence based analysis
OTU domain-containing protein 3, sequence (Q5T2D3 whole entry, the tested form may be a part): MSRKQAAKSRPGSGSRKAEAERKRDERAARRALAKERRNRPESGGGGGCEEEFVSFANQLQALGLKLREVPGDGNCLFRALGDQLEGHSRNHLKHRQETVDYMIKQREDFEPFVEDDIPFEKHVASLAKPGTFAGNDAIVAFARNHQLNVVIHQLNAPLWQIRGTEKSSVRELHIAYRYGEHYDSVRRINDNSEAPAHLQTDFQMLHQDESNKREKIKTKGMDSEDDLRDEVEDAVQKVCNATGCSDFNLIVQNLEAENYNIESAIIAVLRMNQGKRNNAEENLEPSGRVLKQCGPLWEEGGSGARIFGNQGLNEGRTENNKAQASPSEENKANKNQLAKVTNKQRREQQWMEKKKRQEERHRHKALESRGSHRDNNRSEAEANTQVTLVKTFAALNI

[14] = Inhibition of human GST-tagged OTUD5 P177S mutant expressed in Escherichia coli assessed as cleavage of Ubiquitin-Rhodamine110-glycine to Ubiquitin and Rhodamine110-glycine using Ubiquitin-Rhodamine110-glycine as substrate by fluorescence based analysis
[15] = molecular target: OTU domain-containing protein 6A (Homo sapiens, UniProt Q7L8S5); test: Inhibition of human His6-tagged OTUD6A expressed in Escherichia coli assessed as cleavage of Ubiquitin-Rhodamine110-glycine to Ubiquitin and Rhodamine110-glycine using Ubiquitin-Rhodamine110-glycine as substrate by fluorescence based analysis
OTU domain-containing protein 6A, sequence (Q7L8S5 whole entry, the tested form may be a part): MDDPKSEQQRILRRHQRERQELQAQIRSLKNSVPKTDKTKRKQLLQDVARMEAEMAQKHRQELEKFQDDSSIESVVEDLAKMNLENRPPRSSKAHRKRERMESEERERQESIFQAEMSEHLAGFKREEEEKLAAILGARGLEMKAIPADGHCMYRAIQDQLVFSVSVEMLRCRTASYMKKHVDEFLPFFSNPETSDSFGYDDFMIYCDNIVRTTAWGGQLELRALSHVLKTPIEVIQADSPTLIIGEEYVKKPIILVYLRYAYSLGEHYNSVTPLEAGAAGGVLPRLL

[16] = molecular target: Deubiquitinating protein VCPIP1 (Homo sapiens, UniProt Q96JH7); test: Inhibition of human GST-tagged VCPIP CD (25 to 561 residues) expressed in Escherichia coli assessed as cleavage of Ubiquitin-Rhodamine110-glycine to Ubiquitin and Rhodamine110-glycine using Ubiquitin-Rhodamine110-glycine as substrate by fluorescence based analysis
Deubiquitinating protein VCPIP1, sequence (Q96JH7 whole entry, the tested form may be a part): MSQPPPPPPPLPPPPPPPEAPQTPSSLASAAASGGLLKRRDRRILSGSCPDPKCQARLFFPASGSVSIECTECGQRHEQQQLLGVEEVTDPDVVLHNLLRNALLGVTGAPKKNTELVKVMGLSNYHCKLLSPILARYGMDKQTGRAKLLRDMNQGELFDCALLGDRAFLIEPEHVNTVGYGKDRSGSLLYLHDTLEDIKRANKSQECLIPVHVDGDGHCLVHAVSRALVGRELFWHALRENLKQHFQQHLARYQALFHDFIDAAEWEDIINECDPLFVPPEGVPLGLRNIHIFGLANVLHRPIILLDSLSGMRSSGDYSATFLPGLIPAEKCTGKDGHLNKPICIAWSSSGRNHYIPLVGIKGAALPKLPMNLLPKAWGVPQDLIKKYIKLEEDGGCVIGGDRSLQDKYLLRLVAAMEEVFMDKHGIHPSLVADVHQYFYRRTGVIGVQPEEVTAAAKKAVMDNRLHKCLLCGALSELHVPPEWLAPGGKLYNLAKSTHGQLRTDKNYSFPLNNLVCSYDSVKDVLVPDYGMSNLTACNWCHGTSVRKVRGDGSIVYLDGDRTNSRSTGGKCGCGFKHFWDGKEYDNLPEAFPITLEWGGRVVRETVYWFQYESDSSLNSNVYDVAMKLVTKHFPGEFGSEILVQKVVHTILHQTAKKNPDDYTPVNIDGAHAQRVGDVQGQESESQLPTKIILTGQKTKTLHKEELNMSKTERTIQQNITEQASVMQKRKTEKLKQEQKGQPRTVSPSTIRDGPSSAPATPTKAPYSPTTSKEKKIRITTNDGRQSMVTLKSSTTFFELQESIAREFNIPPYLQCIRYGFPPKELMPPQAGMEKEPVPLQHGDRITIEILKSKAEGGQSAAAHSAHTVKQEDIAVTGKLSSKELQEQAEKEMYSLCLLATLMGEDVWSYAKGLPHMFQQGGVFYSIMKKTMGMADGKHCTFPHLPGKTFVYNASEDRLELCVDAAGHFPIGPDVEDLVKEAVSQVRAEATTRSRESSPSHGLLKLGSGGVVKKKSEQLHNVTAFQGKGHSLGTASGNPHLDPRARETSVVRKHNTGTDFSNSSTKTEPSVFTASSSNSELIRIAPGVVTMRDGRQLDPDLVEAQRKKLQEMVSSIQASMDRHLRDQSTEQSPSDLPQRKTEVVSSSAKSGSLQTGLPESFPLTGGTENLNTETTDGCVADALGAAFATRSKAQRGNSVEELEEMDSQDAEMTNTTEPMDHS

Ataxin-3-like protein = Ataxin-3-like protein (Homo sapiens, UniProt Q9H3M9); test: Inhibition of human 6His-tagged Ataxin-3L expressed in Escherichia coli assessed as cleavage of Ubiquitin-Rhodamine110-glycine to Ubiquitin and Rhodamine110-glycine using Ubiquitin-Rhodamine110-glycine as substrate by fluorescence based analysis
Josephin-2 = Josephin-2 (Homo sapiens, UniProt Q8TAC2); test: Inhibition of human 6His-tagged JOSD2 expressed in Escherichia coli assessed as cleavage of Ubiquitin-Rhodamine110-glycine to Ubiquitin and Rhodamine110-glycine using Ubiquitin-Rhodamine110-glycine as substrate by fluorescence based analysis

Cc1cc(Cl)cc(-c2ccnc3cc(CN4C(=O)C5C(C4=O)C5(C)C)sc23)c1O[C@@H]1CCNC[C@@H]1C (stereo partly drawn)
CC50 at 120 h [1]: 3.4 µM
clearance [2]: 1.83 mL/min/kg
IC50 [3]: > 10 µM
IC50 [4]: > 10 µM
IC50 [5]: > 10 µM
IC50 [6]: > 10 µM
IC50 [7]: > 10 µM
IC50 [8]: > 10 µM
IC50 [9]: > 10 µM
IC50 [10]: > 10 µM
IC50 [11]: > 10 µM
IC50 [12]: > 10 µM
IC50 [13]: > 10 µM
IC50 [14]: > 10 µM
IC50 [15]: > 10 µM
IC50 [16]: > 10 µM
IC50 (Ataxin-3-like protein): > 10 µM
IC50 (Josephin-2): > 10 µM
